# Measured values reported in patent US6734337B2, “Acetyl-coenzyme A carboxylase 2 as a target in the regulation of fat burning, fat accumulation, energy homeostasis and insulin action” (Research Development Foundation, priority 2000, dated 2004).
# Columns and labels:
# [1] = system: soleus muscles of wild-type (Acc2+/+) mice; assay: [3H]palmitate oxidation in isolated soleus muscle of wild-type mice; format: cell-based, mouse; conditions: isoproterenol 3 mM, 30 min, 37° C.
# Procedure: Where indicated, insulin (10 nM) or isoproterenol (3 mM) was added, and the vials were incubated at 37° C. under a humidified O2/CO2 (95/5%) atmosphere for 30 min. At the end of the incubation period, the [^3H]2O was separated from the labeled substrate and counted. To provide further evidence for the role of ACC2-synthesized malonyl-CoA as the regulator of fatty acid oxidation, fatty acid oxidation was investigated in the mouse soleus muscle, a […] muscle tissue responsive to hormonal regulation ([…]., Gamble, J., Patel, A., Kemp, […]., and Ruderman, W. B., J Biol Chem., 272:13255-13261 1997; Alam, N., and E. D. Saggerson. Biochem J., 334:233-41, 1998; […]., and […]. Proc Natl Acad Sci. USA 92, 4011-4015, 1995; […]., and […] Biol Chem. 272, 10669-10677, 1997; -Ha, J., J. K. Lee, […], and K.-H. Him. Proc Natl Acad Sci USA. 93:11466-11470, 1996; Rasmussen, B. B. and Wolfe, R. R., Ann. Rev. Natr. 19:463, 1999; and, Bressler, R. and […] Biol Chem. 236:1643-1651, 1961). […] Insulin is known to activate both ACC1 and ACC2 and, thereby, to induce fatty acid synthesis and inhibit fatty acid oxidation, respectively. […] Faseb J. 3:2250-2256, 1989; Thampy, K. G., and […]. Biol. Chem. 263, 6454-6458, 1988; […]., and […]. Biol. Chem. 265, 6330-6338, 1990; Mohamed, A. H., W. Y. Huang, W. Huang, K. V. Venkatachalam, and […] Biol Chem. 269:6859-6865. […]
# [2] = system: soleus muscles of Acc2-/- mutant mice; assay: [3H]palmitate oxidation in isolated soleus muscle of Acc2-/- mutant mice; format: cell-based, mouse; conditions: 30 min, 37° C.
# Procedure: Where indicated, insulin (10 nM) or isoproterenol (3 mM) was added, and the vials were incubated at 37° C. under a humidified O2/CO2 (95/5%) atmosphere for 30 min. At the end of the incubation period, the [^3H]2O was separated from the labeled substrate and counted. To provide further evidence for the role of ACC2-synthesized malonyl-CoA as the regulator of fatty acid oxidation, fatty acid oxidation was investigated in the mouse soleus muscle, a […] muscle tissue responsive to hormonal regulation ([…]., Gamble, J., Patel, A., Kemp, […]., and Ruderman, W. B., J Biol Chem., 272:13255-13261 1997; Alam, N., and E. D. Saggerson. Biochem J., 334:233-41, 1998; […]., and […]. Proc Natl Acad Sci. USA 92, 4011-4015, 1995; […]., and […] Biol Chem. 272, 10669-10677, 1997; -Ha, J., J. K. Lee, […], and K.-H. Him. Proc Natl Acad Sci USA. 93:11466-11470, 1996; Rasmussen, B. B. and Wolfe, R. R., Ann. Rev. Natr. 19:463, 1999; and, Bressler, R. and […] Biol Chem. 236:1643-1651, 1961). […] Insulin is known to activate both ACC1 and ACC2 and, thereby, to induce fatty acid synthesis and inhibit fatty acid oxidation, respectively. […] Faseb J. 3:2250-2256, 1989; Thampy, K. G., and […]. Biol. Chem. 263, 6454-6458, 1988; […]., and […]. Biol. Chem. 265, 6330-6338, 1990; Mohamed, A. H., W. Y. Huang, W. Huang, K. V. Venkatachalam, and […] Biol Chem. 269:6859-6865. 1994; and, Hardie, D. G. Prog Lipid Res. 28:117-146, 1989). The role of ACC2 in the regulation of mitochondrial oxidation of fatty acids was further confirmed by using isoproterenol, an analog of glucagon, which produces effects opposite of those of insulin. Adding isoproterenol to wild-type soleus muscle increased palmitate oxidation by 50% (FIG. 4), raising it to nearly the same level as that found in the mutant muscle cells. […] This additional increase may be due to factors independent of malonyl-CoA ([…]. Lopez-[…]. Bai, X. Luo, and M. E. Pape. Faseb J. 3:2250-2256, 1989).
# ACC = conditions: mice treated with fatty acid synthase inhibitors; cited from earlier work
compound,measurement,setting,value
CC(C)NCC(O)c1ccc(O)c(O)c1 (centres unmarked) [isoproterenol],increase of fatty acid (palmitate) oxidation,[1],50%
same,effect on fatty acid oxidation,[2]; isoproterenol 3 mM,further increased
same,effect on fatty acid oxidation,"[2]; isoproterenol 3 mM, listed as Isoproterenol",little effect
CCCCCCCCCCCCCCOc1ccc(C(=O)O)o1 [5-(tetradeculoxy)-2 furoic acid],effect on food uptake,ACC,increases food uptake
insulin,effect on fatty acid oxidation,[2]; insulin 10 nM,did not affect
